# Structures can show the parent of a compound that is named as a salt.
# Test system: IRE1-XBP1s
# Assay: IRE1-XBP1s activation Assay (XBP1-RLuc splicing reporter, HEK293 T-REx cells)
# Type: cell-based
# Conditions: compound 10 μM, 18 h, HEK293 T-REx cells stably expressing XBP1-RLuc splicing reporter, relative to thapsigargin (Tg) 500 nM, read-out: Activity (IRE1-XBP1s Activation; luminescence as percentage signal relative to thapsigargin)
# Description: IRE1-XBP1s activation Assay: HEK293 T-REx cells stably expressing the XBP1-RLuc splicing reporter were treated with an IRE1—XBP1s activator provided herein (10 μM) in the presence or absence of the IRE1 active site inhibitor 4 μ8C (32 μM) for 18 h. Luminescence was shown as the percentage signal relative to thapsigargin (Tg) (500 nM, 18 h).
row,Compound,activation at 10 µM [%]
1,COc1ccc(OCCC(=O)Nc2cnn(CC(=O)N(C)CCOc3ccc(C)cc3)c2)cc1 [Compound 10],≥ 50
2,Cc1ccc(OCCN(C)C(=O)Cn2cnc(NC(=O)CCOc3ccc(F)cc3)c2)cc1 [Compound 16],≥ 50
3,"Cc1ccc(OCCN(C)C(=O)Cn2cc(NC(=O)CCc3ccccc3)cn2)cc1 [Compound 25, N-(1-(2-(Methyl(2-(p-tolyloxy)ethyl)amino)-2-oxoethyl)-1H -pyrazol-4-yl)-3-phenylpropanamide hydrochloride]",30 to 50
4,"Cc1ccc(OCCN(C)C(=O)Cn2cc(NC(=O)Cc3ccccc3)cn2)cc1 [Compound 26, N-Methyl-2-(4-(2-phenylacetamido)-1H-pyrazol-1-yl)-N-(2-(p-tolyloxy)ethypacetamide hydrochloride]",< 30
5,"CN(CCc1ccccc1)C(=O)Cn1cc(NC(=O)CCOc2ccccc2)cn1 [Compound 27, N-(1-(2-(methyl(phenethyl)amino)-2-oxoethyl)-1H-pyrazol-4-yl) -3-phenoxypropanamide hydrochloride]",< 30
6,"CN(C(=O)Cn1cc(NC(=O)CCOc2ccccc2)cn1)c1ccccc1 [Compound 28, N-(1-(2-(Methyl(phenyl)amino)-2-oxoethyl)-1H-pyrazol-4-yl)-3-phenoxypropanamide hydrochloride]",< 30
7,"CN(CCOc1ccccc1)C(=O)Cn1cc(NC(=O)CCOc2ccccc2)cn1 [Compound 29, N-(1-(2-(Methyl(2-phenoxyethyl)amino)-2-oxoethyl)-1H-pyrazol-4-yl)-3-phenoxypropanamide hydrochloride]",< 30
8,"CN(CCOc1ccc(C(F)(F)F)cc1)C(=O)Cn1cc(NC(=O)CCOc2ccccc2)cn1 [Compound 30, N-(1-(2-(Methyl(2-(4-(trifluoromethyl)phenoxy)ethyl)amino)-2-oxoethyl)-1H-pyrazol-4-yl)-3-phenoxypropanamide hydrochloride]",≥ 50
9,CN(CCCc1ccc(C(F)(F)F)cc1)C(=O)Cn1cc(NC(=O)CCOc2ccccc2)cn1 [Compound 31],< 30
10,Cc1ccc(OCCN(C)C(=O)Cn2cc(NC(=O)CCOc3ccccc3F)cn2)cc1 [Compound 34],≥ 50
11,Cc1ccc(OCCN(C)C(=O)Cn2cc(NC(=O)CCOc3ccc(CO)cc3)cn2)cc1 [Compound 35],≥ 50
12,Cc1ccc(OCCN(C)C(=O)Cn2cc(NC(=O)CCOc3cccc(F)c3)cn2)cc1 [Compound 36],≥ 50
13,Cc1ccc(OCCN(C)C(=O)Cn2cc(NC(=O)CCOc3ccc(N)cc3)cn2)cc1 [Compound 37],≥ 50
14,CN(CCOc1ccccn1)C(=O)Cn1cc(NC(=O)CCOc2ccccc2)cn1 [Compound 38],< 30
15,CN(CCOc1ccc(C(F)(F)F)cn1)C(=O)Cn1cc(NC(=O)CCOc2ccccc2)cn1 [Compound 39],30 to 50
16,CN(CCOc1ccc(C2(C(F)(F)F)N=N2)cc1)C(=O)Cn1cc(NC(=O)CCOc2ccccc2)cn1 [Compound 40],< 30
17,Cc1ccc(OCCNC(=O)Cn2cc(NC(=O)CCOc3ccccc3)cn2)cc1 [Compound 41],< 30
18,COc1ccc(OCCNC(=O)Cn2cc(NC(=O)CCOc3ccccc3)cn2)cc1 [Compound 42],< 30
19,Cc1ccc(CN(C)C(=O)Cn2cc(NC(=O)CCOc3ccccc3)cn2)cc1 [Compound 43],< 30
20,Cc1ccc(OCCN(C)C(=O)Cn2cc(NC(=O)COc3ccccc3)cn2)cc1 [Compound 44],30 to 50
21,Cc1ccc(OCCN(C)C(=O)Cn2cc(NC(=O)CCOc3ccc(Cl)cc3)cn2)cc1 [Compound 45],30 to 50
22,Cc1ccc(OCCN(C)C(=O)C(C)n2cc(NC(=O)CCOc3ccccc3)cn2)cc1 (centres unmarked) [Compound 46],30 to 50
23,Cc1ccc(OCCN(C)C(=O)Cn2nc(C)c(NC(=O)CCOc3ccccc3)c2C)cc1 [Compound 47],< 30
24,"Cc1ccc(OCCN(C)C(=O)Cn2ccc(NC(=O)CCOc3ccccc3)n2)cc1 [Compound 50, N-(1-(2-(methyl(2-(p-tolyloxy)ethyl)amino)-2-oxoethyl)-1H -pyrazol-3-yl)-3-phenoxypropanamide]",< 30
25,COc1ccc(OCCC(=O)Nc2ccn(CC(=O)N(C)CCOc3ccc(C)cc3)n2)cc1 [Compound 51],< 30
26,Cc1ccc(OCCN(C)C(=O)Cn2cc(NC(=O)CCCc3ccccc3)cn2)cc1 [Compound 53],30 to 50

# Reference: patent US20240092757A1, “HETEROARYL DIAMIDE IRE1/XBP1s ACTIVATORS” (Protego Biopharma, Inc., priority 2021, published 2024)
